Data taken from ChEMBL document CHEMBL3885861, “Open TG-GATES”.

Organism: Rattus norvegicus
Assay: Open TG-GATES - Regimen: Single
Assay type: toxicity, organism-based, Sprague-Dawley
Parameters: regimen Single, gender Male, age 6 weeks
Details: in vivo, po, 200 mg/kg, route gavage, dose level High; for APTT / Bas / Eos / Fbg / Hb / Ht / Lym / MCH / MCHC / MCV / Mono / Neu / PT / Plat / RBC / Ret / WBC: tissue Blood; for KIDNEY_L / KIDNEY_R / KIDNEY_TOTAL: tissue Kidney; for LIVER: tissue Liver; for A/G / ALP / ALT / AST / BUN / CRE / Ca / Cl / DBIL / GLC / IP / K / LDH / Na / PL / RALB / TBIL / TC / TG / TP / gamma-GTP: tissue Plasma

SMILES: Cn1c(=O)c2[nH]cnc2n(C)c1=O.O [THEOPHYLLINE]
- TERMINAL_BW (3 h): 215.6 g
- APTT (3 h): 22.6 s
- Bas (3 h): 0%
- Eos (3 h): 1%
- Fbg (3 h): 278 mg/dL
- Hb (3 h): 12.3 g/dL
- Ht (3 h): 37.4%
- Lym (3 h): 67.2%
- MCH (3 h): 20.1 pg
- MCHC (3 h): 32.9%
- MCV (3 h): 60.9 fL
- Mono (3 h): 3%
- Neu (3 h): 28%
- PT (3 h): 15.9 s
- Plat (3 h): 113.5 x10_4/uL
- RBC (3 h): 614.2 x10_4/ul
- Ret (3 h): 7.9%
- WBC (3 h): 58.9 x10_2/uL
- KIDNEY_L (3 h): 0.9 g
- KIDNEY_R (3 h): 0.9 g
- KIDNEY_TOTAL (3 h): 1.8 g
- LIVER (3 h): 9.1 g
- A/G (3 h): 1.3
- ALP (3 h): 1241.4 IU/L
- ALT (3 h): 43.8 IU/L
- AST (3 h): 93.6 IU/L
- BUN (3 h): 13.8 mg/dL
- CRE (3 h): 0.1 mg/dL
- Ca (3 h): 10 mg/dL
- Cl (3 h): 104.4 meq/L
- DBIL (3 h): 0 mg/dL
- GLC (3 h): 202.8 mg/dL
- IP (3 h): 7.2 mg/dL
- K (3 h): 3.2 meq/L
- LDH (3 h): 215.8 IU/L
- Na (3 h): 136.8 meq/L
- PL (3 h): 109.8 mg/dL
- RALB (3 h): 3.1 g/dL
- TBIL (3 h): 0.014 mg/dL
- TC (3 h): 66.8 mg/dL
- TG (3 h): 20 mg/dL
- TP (3 h): 5.4 g/dL
- gamma-GTP (3 h): 1.8 IU/L
- TERMINAL_BW (6 h): 216 g
- APTT (6 h): 22.3 s
- Bas (6 h): 0%
- Eos (6 h): 0.2%
- Fbg (6 h): 329.2 mg/dL
- Hb (6 h): 13.1 g/dL
- Ht (6 h): 39.7%
- Lym (6 h): 58.6%
- MCH (6 h): 20.6 pg
- MCHC (6 h): 33.1%
- MCV (6 h): 62.3 fL
- Mono (6 h): 3.6%
- Neu (6 h): 35.6%
- PT (6 h): 15.5 s
- Plat (6 h): 123.7 x10_4/uL
- RBC (6 h): 636.8 x10_4/ul
- Ret (6 h): 7.6%
- WBC (6 h): 75.8 x10_2/uL
- KIDNEY_L (6 h): 1 g
- KIDNEY_R (6 h): 1 g
- KIDNEY_TOTAL (6 h): 1.9 g
- LIVER (6 h): 9.5 g
- A/G (6 h): 1.3
- ALP (6 h): 1423 IU/L
- ALT (6 h): 46.2 IU/L
- AST (6 h): 111.4 IU/L
- BUN (6 h): 13.8 mg/dL
- CRE (6 h): 0.2 mg/dL
- Ca (6 h): 10.4 mg/dL
- Cl (6 h): 108.2 meq/L
- DBIL (6 h): 0 mg/dL
- GLC (6 h): 206.6 mg/dL
- IP (6 h): 6.8 mg/dL
- K (6 h): 3.5 meq/L
- LDH (6 h): 212.6 IU/L
- Na (6 h): 140.2 meq/L
- PL (6 h): 127 mg/dL
- RALB (6 h): 3.4 g/dL
- TBIL (6 h): 0.016 mg/dL
- TC (6 h): 72 mg/dL
- TG (6 h): 22.2 mg/dL
- TP (6 h): 6.1 g/dL
- gamma-GTP (6 h): 1.4 IU/L
- TERMINAL_BW (9 h): 212.2 g
- APTT (9 h): 24.6 s
- Bas (9 h): 0%
- Eos (9 h): 0%
- Fbg (9 h): 335.8 mg/dL
- Hb (9 h): 12.9 g/dL
- Ht (9 h): 38.7%
- Lym (9 h): 69.4%
- MCH (9 h): 20.3 pg
- MCHC (9 h): 33.4%
- MCV (9 h): 60.9 fL
- Mono (9 h): 1.4%
- Neu (9 h): 28.6%
- PT (9 h): 15.5 s
- Plat (9 h): 120.5 x10_4/uL
- RBC (9 h): 634.8 x10_4/ul
- Ret (9 h): 7.6%
- WBC (9 h): 51.8 x10_2/uL
- KIDNEY_L (9 h): 0.9 g
- KIDNEY_R (9 h): 0.9 g
- KIDNEY_TOTAL (9 h): 1.8 g
- LIVER (9 h): 8.7 g
- A/G (9 h): 1.3
- ALP (9 h): 1474.4 IU/L
- ALT (9 h): 38.8 IU/L
- AST (9 h): 86.2 IU/L
- BUN (9 h): 12 mg/dL
- CRE (9 h): 0.2 mg/dL
- Ca (9 h): 10.8 mg/dL
- Cl (9 h): 105 meq/L
- DBIL (9 h): 0 mg/dL
- GLC (9 h): 193.6 mg/dL
- IP (9 h): 7.1 mg/dL
- K (9 h): 3.5 meq/L
- LDH (9 h): 182.8 IU/L
- Na (9 h): 139 meq/L
- PL (9 h): 141 mg/dL
- RALB (9 h): 3.4 g/dL
- TBIL (9 h): 0.026 mg/dL
- TC (9 h): 77.4 mg/dL
- TG (9 h): 30.6 mg/dL
- TP (9 h): 6.2 g/dL
- gamma-GTP (9 h): 1.2 IU/L
- TERMINAL_BW (24 h): 224.5 g
- APTT (24 h): 21.6 s
- Bas (24 h): 0%
- Eos (24 h): 0.4%
- Fbg (24 h): 370.4 mg/dL
- Hb (24 h): 13.9 g/dL
- Ht (24 h): 41.2%
- Lym (24 h): 70.2%
- MCH (24 h): 20.7 pg
- MCHC (24 h): 33.6%
- MCV (24 h): 61.4 fL
- Mono (24 h): 3.2%
- Neu (24 h): 24%
- PT (24 h): 16.3 s
- Plat (24 h): 124.1 x10_4/uL
- RBC (24 h): 670.4 x10_4/ul
- Ret (24 h): 7%
- WBC (24 h): 103.6 x10_2/uL
- KIDNEY_L (24 h): 0.9 g
- KIDNEY_R (24 h): 1 g
- KIDNEY_TOTAL (24 h): 1.9 g
- LIVER (24 h): 9.4 g
- A/G (24 h): 1.2
- ALP (24 h): 1552.6 IU/L
- ALT (24 h): 44.8 IU/L
- AST (24 h): 76.2 IU/L
- BUN (24 h): 16.4 mg/dL
- CRE (24 h): 0.2 mg/dL
- Ca (24 h): 11.2 mg/dL
- Cl (24 h): 104.4 meq/L
- DBIL (24 h): 0 mg/dL
- GLC (24 h): 186.4 mg/dL
- IP (24 h): 8.4 mg/dL
- K (24 h): 4 meq/L
- LDH (24 h): 180 IU/L
- Na (24 h): 141.6 meq/L
- PL (24 h): 129.8 mg/dL
- RALB (24 h): 3.1 g/dL
- TBIL (24 h): 0.018 mg/dL
- TC (24 h): 75 mg/dL
- TG (24 h): 38.8 mg/dL
- TP (24 h): 5.6 g/dL
- gamma-GTP (24 h): 1.4 IU/L
